{
  "source": "patent US20090062388A1",
  "about": "“Use of acetyl L-carnitine for the preparation of a medication for the preventive therapy for pain” (Sigma-Tau Industrie Farmaceutiche Riunite S.p.A., priority 2001, published 2009)",
  "key": {"[1]": {"system": "Male Swiss Webster mice", "test": "Abdominal constriction test (acetic acid IP)", "type": "in vivo", "conditions": "for Number of constrictions (0.3% acetic acid) / Number of constrictions (0.6% acetic acid): 3 mg/ml in drinking water", "description": "The second experiment was the abdominal constriction test.\nThe abdominal constriction test was carried out according to Koster et al. in Fed. Proc. 18: 412, 1959.\nAccording to this test, an IP injection of 0.6% acetic acid solution is to be made 5 minutes before starting the observation, which lasted 10 minutes.\nIn some experiments, the percentage of acetic acid was reduced by half (0.3%)."}, "[2]": {"system": "M1 muscarinic receptor sub-type", "test": "Hot plate: acetyl L-carnitine analgesia after anti-M1 antisense oligonucleotide ICV", "type": "in vivo, mice", "conditions": "Acetyl L-carnitine 100 mg/kg BID SC 7 days", "excerpt": "The observation that the analgesia induced by the acetyl L-carnitine is mediated by the M1 muscarinic receptor sub-type is confirmed by the application of the anti-sense strategy."}, "[3]": {"system": "Male Swiss Webster mice", "test": "Sleep induction test with pentobarbital", "type": "in vivo", "description": "In the sleep induction test with pentobarbital, the duration of the loss of the […] reflex was measured in the mice treated with pentobarbital (60 mg/kg IP)."}, "[4]": {"system": "Male Swiss Webster mice", "test": "Hyperalgesia induced by morphine withdrawal syndrome (hot plate)"}, "[5]": {"conditions": "pentobarbital 60 mg/kg IP, Acetyl L-carnitine 100 mg/kg BID SC 7 days, Piracetam 30 mg/kg IP"}},
  "data": [
    {"compound": "CC(=O)O[C@H](CC(=O)[O-])C[N+](C)(C)C", "note": "[Acetyl L-carnitine, acetyl L-carnitine]", "values": [
      {"measurement": "Number of constrictions (0.3% acetic acid)", "setting": "[1]; sub-chronic treatment 7 days", "value": "12.7 ± 3.5"},
      {"measurement": "Number of constrictions (0.6% acetic acid)", "setting": "[1]; sub-chronic treatment 7 days", "value": "31.5 ± 4.0"},
      {"measurement": "Number of constrictions (0.3% acetic acid)", "setting": "[1]; sub-chronic treatment 14 days", "value": "11.9 ± 2.2"},
      {"measurement": "Number of constrictions (0.6% acetic acid)", "setting": "[1]; sub-chronic treatment 14 days", "value": "28.3 ± 5.1"},
      {"measurement": "antinociceptive effect, abdominal constriction test", "setting": "[1]; 0.6% acetic acid, 30 mg/kg IP (or SC), 18-day treatment (FIG. 3)", "value": "had no effect"},
      {"measurement": "antinociceptive effect, abdominal constriction test", "setting": "[1]; 0.6% acetic acid, 100 mg/kg BID, SC or IP, 14 days of treatment (FIG. 1)", "value": "exerted an antinociceptive effect"},
      {"measurement": "antinociceptive effect, abdominal constriction test", "setting": "[1]; 0.6% acetic acid, 100 mg/kg acute administration (SC or IP) or repeated for 7 days (FIG. 1)", "value": "had no effect at all"},
      {"measurement": "antinociceptive effect, abdominal constriction test", "setting": "[1]; small concentration of acid, 30 mg/kg, 14 days (FIG. 4)", "value": "the statistic significance was obtained after 14 days"},
      {"measurement": "pain threshold in abdominal constriction test (0.3 and 0.6%)", "setting": "[1]; solution 3 mg/ml in bottle for 7 and 14 days", "value": "no increase in the pain threshold was observed"},
      {"measurement": "Hot plate Licking latency", "setting": "[2]; pre-treat. AODN 3 nmol ICV, 24 hours after last injection, before treatment", "value": "13.5 ± 0.8", "unit": "s"},
      {"measurement": "Hot plate Licking latency", "setting": "[2]; pre-treat. AODN 3 nmol ICV, after treatment 15 min", "value": "16.6 ± 1.9", "unit": "s"},
      {"measurement": "Hot plate Licking latency", "setting": "[2]; pre-treat. AODN 3 nmol ICV, after treatment 30 min", "value": "15.8 ± 1.8", "unit": "s"},
      {"measurement": "Hot plate Licking latency", "setting": "[2]; pre-treat. AODN 3 nmol ICV, after treatment 45 min", "value": "15.8 ± 1.5", "unit": "s"},
      {"measurement": "Hot plate Licking latency", "setting": "[2]; pre-treat. dODN 3 nmol ICV, 24 hours after last injection, before treatment", "value": "23.6 ± 1.1", "unit": "s"},
      {"measurement": "Hot plate Licking latency", "setting": "[2]; pre-treat. dODN 3 nmol ICV, after treatment 15 min", "value": "22.6 ± 2.3", "unit": "s"},
      {"measurement": "Hot plate Licking latency", "setting": "[2]; pre-treat. dODN 3 nmol ICV, after treatment 30 min", "value": "21.9 ± 1.5", "unit": "s"},
      {"measurement": "Hot plate Licking latency", "setting": "[2]; pre-treat. dODN 3 nmol ICV, after treatment 45 min", "value": "22.3 ± 1.7", "unit": "s"},
      {"measurement": "effect on pentobarbital sleep duration and induction times", "setting": "[3]; 100 mg/kg BID SC for 7 days, pentobarbital 60 mg/kg IP 24 hours after end of treatments", "value": "neither affected the duration of sleep nor the induction times"},
      {"measurement": "SLEEP Duration", "setting": "[3]; [5]", "value": "23.5 ± 3.4", "unit": "min"},
      {"measurement": "SLEEP Induction time", "setting": "[3]; [5]", "value": "3.3 ± 2.1", "unit": "min"},
      {"measurement": "reversal of hyperalgesia induced by morphine withdrawal syndrome", "setting": "[4]; one single administration, 5 hours and 30 minutes from replacement of morphine with water (FIG. 5bis)", "value": "not after one single administration"},
      {"measurement": "reversal of hyperalgesia induced by morphine withdrawal syndrome", "setting": "[4]; repeated treatment 100 mg/kg BID, IP or SC for 7 days (FIG. 5)", "value": "capable of reverting the hyperalgesia"}
    ]}
  ]
}
